# Data as given in patent US4389398A, “Amino glycoside antibiotics having antiprotozoal and anthelmintic activity” (priority 1978, dated 1983).
# Like-named read-outs stand apart in the source and are kept apart here.
# Tests used:
# Syphacia obvelata [1] = assay: Stated anthelmintic activity against pinworms such as Syphacia obvelata
# Entamoeba histolytica [2] = assay: Stated activity against Entamoeba histolytica
# bacteria = conditions: cited from earlier work
# Histomonas meleagridis [3] = assay: Prophylactic activity in turkeys against Histomonas meleagridis; format: in vivo; conditions: turkeys inoculated orally with 500 Heterakis gallinae ova
# Method: Gentamicin A was administered to groups of turkeys at dosage levels of 5, 10, and 15 mg. per turkey per day in aqueous solution. Two days after the initiation of the drug, the turkeys were inoculated orally with 500 Heterakis gallinae ova (the intermediate host carrier of Histomonas). A single group of turkeys received 0.035% of gentamicin A in their feed for six days. Untreated infected controls were also carried in each experiment. The test is continued for twelve days and the birds are autopsied on the thirteenth day. Infection is usually manifested principally in two areas, the cecum and the liver which are the areas examined during the autopsy.
# Trichomonas vaginalis [4] = assay: In vitro activity against Trichomonas vaginalis; format: cell-based; conditions: for MIC / MBC: Trichomonas vaginalis; for MIC: read-out: Minimal 99% Suppression Level; for MBC: read-out: Minimal Cidal Level
# From the text: In Table VI below is set forth the in vitro activity of the compounds of this invention against T. vaginalis. The test procedure used was substantially as described by R. J. Schnitzer on pages 289-331 in Experimental Chemotherapy, Volume 1, Academic Press, New York (1963).
# Trichomonas foetus = assay: Stated activity against Trichomonas foetus
# Histomonas meleagridis [5] = assay: Stated activity against Histomonas meleagridis
# Trichomonas vaginalis [6] = assay: Stated activity against Trichomonas vaginalis
# Staphylococcus aureus = assay: In vitro minimal inhibitory concentration, Staphylococcus aureus; format: cell-based; conditions: pH 7.4
# Method: (§1) In Table III below is set forth the in vitro minimal inhibitory concentration of gentamicin B, gentamicin B1 and gentamicin X all in the free base form against a variety of gram positive and gram negative microorganisms. The experiments were carried out in a yeast beef broth medium at pH 7.4.
# Aerobacter aerogenes = assay: In vitro minimal inhibitory concentration, Aerobacter aerogenes; format: cell-based; conditions: pH 7.4
# Method: as §1
# [7] = test system: Pseudomonas aeruginosa SC; assay: Protective activity in mice, Pseudomonas aeruginosa SC infection; format: in vivo; conditions: subcutaneous one hour after infection, survivors at 48 hours, read-out: PD50
# Method: (§2) Infected non-treated controls die in about 18 to 24 hours. Generally 5-7 dose levels are administered to mice weighing about 20 grams in groups of 7-10.
# [8] = Chronic toxicity (ataxia) in cats after daily subcutaneous dosing; format: in vivo
# From the text: There appears to be a causal relationship between high doses of amino-glycoside type antibiotics given over an extended period of time and vestibular damage wherein one of the early manifestations is ataxia. […] Moreover, they may be used at such dosages for a time interval substantially beyond that normally required to eliminate infection without causing ataxia; and with minimal, if any, toxic manifestations. Thus, gentamicin B and gentamicin B1 represent a substantial improvement over antibiotics of this class (amino-glycoside) that are currently in use.
# Streptococcus pyogenes C = assay: Protective activity in mice, Streptococcus pyogenes C infection; format: in vivo; conditions: sc, subcutaneous one hour after infection, survivors at 48 hours, read-out: PD50
# Method: as §2
# Pseudomonas aeruginosa = assay: In vitro minimal inhibitory concentration, Pseudomonas aeruginosa; format: cell-based; conditions: pH 7.4
# Method: as §1
# [9] = test system: Staphylococcus aureus Smith; assay: Protective activity in mice, Staphylococcus aureus Smith infection; format: in vivo; conditions: sc, subcutaneous one hour after infection, survivors at 48 hours, read-out: PD50
# Method: as §2
# Shigella sp. M324 = assay: In vitro minimal inhibitory concentration, Shigella sp. M324; format: cell-based; conditions: free base; yeast beef broth medium, pH 7.4
# Method: as §1
# Acute toxicity in mice = conditions: mouse
# Method: The acute toxicity of gentamicin B, gentamicin B1 and gentamicin X is determined in male CF-1 (Carworth Farms) mice weighing about 20 grams each.
# Sarcina lutea = assay: In vitro minimal inhibitory concentration, Sarcina lutea; format: cell-based; conditions: pH 7.4
# Method: as §1
# Streptococcus pyogenes = assay: In vitro minimal inhibitory concentration, Streptococcus pyogenes; format: cell-based; conditions: pH 7.4
# Method: as §1
# Salmonella paratyphi B = assay: Protective activity in mice, Salmonella paratyphi B infection; format: in vivo; conditions: Salmonella enterica, sc, subcutaneous one hour after infection, survivors at 48 hours, read-out: PD50
# Method: as §2
# Escherichia coli = assay: In vitro minimal inhibitory concentration, Escherichia coli; format: cell-based; conditions: pH 7.4
# Method: as §1
# Bacillus subtilis = assay: In vitro minimal inhibitory concentration, Bacillus subtilis; format: cell-based; conditions: pH 7.4
# Method: as §1
# Staphylococcus aureus W = assay: Protective activity in mice, Staphylococcus aureus W infection; format: in vivo; conditions: sc, subcutaneous one hour after infection, survivors at 48 hours, read-out: PD50
# Method: as §2
# [10] = test system: Staphylococcus aureus Gray; assay: Protective activity in mice, Staphylococcus aureus Gray infection; format: in vivo; conditions: sc, subcutaneous one hour after infection, survivors at 48 hours, read-out: PD50
# Method: as §2
# Klebsiella pneumoniae = assay: In vitro minimal inhibitory concentration, Klebsiella pneumoniae; format: cell-based; conditions: pH 7.4
# Method: as §1
# Syphacia obvelata [11] = assay: Anthelmintic activity in vivo against Syphacia obvelata in mice; design: species or system male Millerton mice; conditions: for anthelmintic activity (in words): male Millerton mice
# Entamoeba hystolytica = assay: Activity against Entamoeba hystolytica (MIC and minimal cidal concentration); format: cell-based; conditions: 48 hours
# Escherichia coli SC = assay: Protective activity in mice, Escherichia coli SC infection; format: in vivo; conditions: subcutaneous one hour after infection, survivors at 48 hours, read-out: PD50
# Method: as §2
# helminths = conditions: cited from earlier work
# protozoa = conditions: cited from earlier work
# Trichomonas vaginalis [12] = conditions: at somewhat high dose ranges; cited from earlier work
# Entamoeba histolytica [13] = conditions: Albach et al., Am. J. Trop. Med. Hyg. 15, 885 (1965); cited from earlier work
# [14] = free base, yeast beef broth medium, read-out: MIC
molecule,measurement,setting,value
CNC1C(O)COC(OC2C(N)CC(N)C(OC3OC(CO)C(O)C(O)C3N)C2O)C1O (stereo not shown) [Gentamicin A],anthelmintic activity (in words),Syphacia obvelata [1],effective
same,antiprotozoal activity (in words),Entamoeba histolytica [2],effective
same,antibiotic activity (in words),bacteria,rather weak antibiotic activity
same,minimum dosage level with prophylactic activity,Histomonas meleagridis [3],10 mg. per bird
same,MIC,Trichomonas vaginalis [4]; 24 hours,10 µg/mL
same,MBC,Trichomonas vaginalis [4]; 24 hours,25 µg/mL
same,MIC,Trichomonas vaginalis [4]; 48 hours,5 to 10 µg/mL
same,MBC,Trichomonas vaginalis [4]; 48 hours,10 µg/mL
same,antiprotozoal activity (in words),Trichomonas foetus,effective
same,antiprotozoal activity (in words),Histomonas meleagridis [5],effective
same,antiprotozoal activity (in words),Trichomonas vaginalis [6],effective
CNC1C(O)C(OC2C(N)CC(N)C(OC3OC(C(C)N)C(O)C(O)C3O)C2O)OCC1(C)O (stereo not shown) [Gentamicin B1],anthelmintic activity (in words),Syphacia obvelata [1],effective
same,MIC,Staphylococcus aureus; [14],0.3 to 3 µg/mL
same,MIC,Aerobacter aerogenes; [14],0.08 µg/mL
same,ED50,[7],2 mg/kg
same,Average No. Days to become ataxic,[8]; 40 mg/kg/day subcutaneous,108.0 days
same,Average No. Days to become ataxic,[8]; 60 mg/kg/day subcutaneous,69.0 days
same,Average No. Days to become ataxic,[8]; 240 mg/kg/day subcutaneous,21.0 days
same,"period of administration to cause impairment of the ""righting reflex"" and ataxia (in words)",[8]; high doses,required substantially longer periods of administration at high doses
same,ataxic potential (in words),[8]; see Table VIII,low ataxic potential
same,ED50,Streptococcus pyogenes C,18 mg/kg
same,MIC,Pseudomonas aeruginosa; [14],0.08 µg/mL
same,ED50,[9],2.5 mg/kg
same,antiprotozoal activity (in words),Entamoeba histolytica [2],to a lesser extent
same,MIC,Shigella sp. M324,5 µg/mL
same,LD50,"Acute toxicity in mice; in vivo, ip",1600 mg/kg
same,LD50,"Acute toxicity in mice; in vivo, iv",230 mg/kg
same,LD50,"Acute toxicity in mice; in vivo, po",> 250 mg/kg
same,LD50,"Acute toxicity in mice; in vivo, sc",> 1500 mg/kg
same,MIC,Trichomonas vaginalis [4]; 24 hours,25 µg/mL
same,MBC,Trichomonas vaginalis [4]; 24 hours,> 250 µg/mL
same,MIC,Trichomonas vaginalis [4]; 48 hours,10 to 25 µg/mL
same,MBC,Trichomonas vaginalis [4]; 48 hours,25 µg/mL
same,MIC,Sarcina lutea; [14],0.3 µg/mL
same,MIC,Streptococcus pyogenes; [14],3 µg/mL
same,antiprotozoal activity (in words),Histomonas meleagridis [5],to a lesser extent
same,ED50,Salmonella paratyphi B,4 mg/kg
same,MIC,Escherichia coli; [14],0.08 to 0.3 µg/mL
same,MIC,Bacillus subtilis; [14],3 µg/mL
same,ED50,Staphylococcus aureus W,50 mg/kg
same,ED50,[10],30 mg/kg
same,MIC,Klebsiella pneumoniae; [14],3 µg/mL
CNC1C(O)C(OC2C(N)CC(N)C(OC3OC(CN)C(O)C(O)C3O)C2O)OCC1(C)O (stereo not shown) [Gentamicin B],anthelmintic activity (in words),Syphacia obvelata [1],effective
same,MIC,Staphylococcus aureus,0.3 to 3 µg/mL
same,MIC,Aerobacter aerogenes,0.08 µg/mL
same,ED50,[7],2 mg/kg
same,ataxic potential (in words),[8]; in vivo,low ataxic potential
same,"period of administration to cause impairment of the ""righting reflex"" and ataxia (in words)",[8]; in vivo,required substantially longer periods of administration at high doses
same,ED50,Streptococcus pyogenes C,15 mg/kg
same,MIC,Pseudomonas aeruginosa,0.03 to 0.08 µg/mL
same,% Infected,"Syphacia obvelata [11]; 8 mg/kg/day, 0.008% in diet",67%
same,Mean Worm Burden,"Syphacia obvelata [11]; 8 mg/kg/day, 0.008% in diet",29.5
same,% Infected,"Syphacia obvelata [11]; 39 mg/kg/day, 0.02% in diet",0%
same,Mean Worm Burden,"Syphacia obvelata [11]; 39 mg/kg/day, 0.02% in diet",0
same,% Infected,"Syphacia obvelata [11]; 100 mg/kg/day, 0.0625% in diet",0%
same,Mean Worm Burden,"Syphacia obvelata [11]; 100 mg/kg/day, 0.0625% in diet",0
same,% Infected,"Syphacia obvelata [11]; 259 mg/kg/day, 0.25% in diet",0%
same,Mean Worm Burden,"Syphacia obvelata [11]; 259 mg/kg/day, 0.25% in diet",0
same,minimal effective dose,"Syphacia obvelata [11]; Syphacia obvelata, read-out: minimum dosage with anthelmintic activity",39 mg/kg/day
same,anthelmintic activity (in words),Syphacia obvelata [11],exhibit anthelmintic activity
same,ED50,[9],5 mg/kg
same,antiprotozoal activity (in words),Entamoeba histolytica [2],to a lesser extent
same,MIC,Shigella sp. M324,5 µg/mL
same,LD50,Acute toxicity in mice; ip,1750 mg/kg
same,LD50,Acute toxicity in mice; iv,228 mg/kg
same,LD50,Acute toxicity in mice; po,> 250 mg/kg
same,LD50,Acute toxicity in mice; sc,> 1500 mg/kg
same,MIC,Trichomonas vaginalis [4]; 24 h,25 µg/mL
same,MBC,Trichomonas vaginalis [4]; 24 h,> 250 µg/mL
same,MIC,Trichomonas vaginalis [4]; 48 h,25 µg/mL
same,MBC,Trichomonas vaginalis [4]; 48 h,25 µg/mL
same,MIC,Sarcina lutea,0.3 µg/mL
same,MIC,Streptococcus pyogenes,3 µg/mL
same,antiprotozoal activity (in words),Histomonas meleagridis [5],to a lesser extent
same,ED50,Salmonella paratyphi B,5 mg/kg
same,MIC,Escherichia coli,0.03 to 0.3 µg/mL
same,MIC,Bacillus subtilis,0.8 µg/mL
same,ED50,Staphylococcus aureus W,50 mg/kg
same,ED50,[10],20 mg/kg
same,MIC,Klebsiella pneumoniae,3 µg/mL
CNC1C(O)C(OC2C(N)CC(N)C(OC3OC(CO)C(O)C(O)C3N)C2O)OCC1(C)O (stereo not shown) [Gentamicin X],MBC,Entamoeba hystolytica,7 µg/mL
same,MIC,Entamoeba hystolytica; read-out: minimal inhibitory concentration,4 µg/mL
same,anthelmintic activity (in words),Syphacia obvelata [1],effective
same,MIC,Staphylococcus aureus; [14],0.08 to 0.75 µg/mL
same,ED50,[7],7 mg/kg
same,MIC,Pseudomonas aeruginosa; [14],0.3 to 0.75 µg/mL
same,anthelmintic effect (in words),Syphacia obvelata [11]; 62 mg/kg/day,partially effective
same,% Infected,"Syphacia obvelata [11]; 62 mg/kg/day, 0.05% in diet",83%
same,Mean Worm Burden,"Syphacia obvelata [11]; 62 mg/kg/day, 0.05% in diet",27
same,anthelmintic effect (in words),Syphacia obvelata [11]; 310 mg/kg/day,totally effective
same,% Infected,"Syphacia obvelata [11]; 310 mg/kg/day, 0.25% in diet",0%
same,Mean Worm Burden,"Syphacia obvelata [11]; 310 mg/kg/day, 0.25% in diet",0
same,anthelmintic activity (in words),Syphacia obvelata [11],exhibit anthelmintic activity
same,antiprotozoal activity (in words),Entamoeba histolytica [2],effective
same,ED50,Escherichia coli SC,1.5 mg/kg
same,LD50,"Acute toxicity in mice; in vivo, ip",> 1000 mg/kg
same,LD50,"Acute toxicity in mice; in vivo, iv",225 mg/kg
same,MIC,Trichomonas vaginalis [4]; 48 hours,2.5 µg/mL
same,MBC,Trichomonas vaginalis [4]; 48 hours,10 µg/mL
same,antiprotozoal activity (in words),Trichomonas foetus,effective
same,MIC,Streptococcus pyogenes; [14],0.3 to 0.75 µg/mL
same,antiprotozoal activity (in words),Histomonas meleagridis [5],effective
same,antiprotozoal activity (in words),Trichomonas vaginalis [6],effective
same,MIC,Escherichia coli; [14],0.3 µg/mL
same,MIC,Bacillus subtilis; [14],0.03 µg/mL
same,ED50,[10],4 mg/kg
same,MIC,Klebsiella pneumoniae; [14],0.75 µg/mL
NC[C@@H]1O[C@H](O[C@H]2[C@@H](O)[C@H](O[C@@H]3[C@@H](O)[C@H](N)C[C@H](N)[C@H]3O[C@H]3O[C@H](CO)[C@@H](O)[C@H](O)[C@H]3N)O[C@@H]2CO)[C@H](N)[C@@H](O)[C@@H]1O [paromomycin],anthelmintic activity (in words),helminths,exhibit anthelmintic activity in reasonably useful dosage ranges
same,antiprotozoal activity (in words),protozoa,known to exhibit antiprotozoal activity to any substantial degree
"Gentamicin C [Garamycin®, reference compound]",activity against T. vaginalis (in words),Trichomonas vaginalis [12],only slight activity
same,activity against E. histolytica (in words),Entamoeba histolytica [13],relatively ineffective
same,Minimal 99% Suppression Level,Trichomonas vaginalis [4]; 24 hours,250 µg/mL
same,Minimal Cidal Level,Trichomonas vaginalis [4]; 24 hours,> 250 µg/mL
same,Minimal 99% Suppression Level,Trichomonas vaginalis [4]; 48 hours,100 µg/mL
same,Minimal Cidal Level,Trichomonas vaginalis [4]; 48 hours,100 µg/mL
